Assay results from patent US12303517B1, “Oral testosterone therapy” (Lipocine, Inc., priority 2016, dated 2025).

Test: Single fixed dose dosing regimen examples for safety and efficacy (serum T Cmax / Cavg criteria), with food
Assay type: in vivo, human
[1] = Regimen 9, QD 1250 mg T13, with food with at least 10 g of fat
[2] = Regimen 10, BID-equal dose (AM/PM) 250/250 mg T13, with food with at least 10 g of fat
[3] = Regimen 11, BID-equal dose (AM/PM) 350/350 mg T13, with food with at least 10 g of fat
[4] = Regimen 12, BID-equal dose (AM/PM) 375/375 mg T13, with food with at least 10 g of fat
[5] = Regimen 13, BID-equal dose (AM/PM) 400/400 mg T13, with food with at least 10 g of fat
[6] = Regimen 14, BID-equal dose (AM/PM) 450/450 mg T13, with food with at least 10 g of fat
[7] = Regimen 15, BID-equal dose (AM/PM) 500/500 mg T13, with food with at least 10 g of fat
[8] = Regimen 16, BID-equal dose (AM/PM) 550/550 mg T13, with food with at least 10 g of fat
[9] = Regimen 17, BID-equal dose (AM/PM) 575/575 mg T13, with food with at least 10 g of fat
[10] = Regimen 18, BID-equal dose (AM/PM) 625/625 mg T13, with food with at least 10 g of fat

CCCCCCCCCCCCC(=O)O[C@H]1CC[C@H]2[C@@H]3CCC4=CC(=O)CC[C@]4(C)[C@H]3CC[C@]12C [T13, testosterone tridecanoate]
Cavg > 300 ng/dL ≥80% patients [1]: Yes
Cmax > 1500 ng/dL <15% patients [1]: No
Cmax > 1500 ng/dL <20% patients [1]: No
Cmax > 1800 ng/dL <5% patients [1]: No
Cmax > 1800 ng/dL <10% patients [1]: No
Cmax > 2500 ng/dL <2% patients [1]: No
Cmax > 2500 ng/dL none of patients [1]: No
Cavg > 300 ng/dL ≥75% patients [2]: No
Cavg > 300 ng/dL ≥80% patients [2]: No
Cmax > 1500 ng/dL <15% patients [2]: Yes
Cmax > 1500 ng/dL <20% patients [2]: Yes
Cmax > 1800 ng/dL <5% patients [2]: Yes
Cmax > 1800 ng/dL <10% patients [2]: Yes
Cmax > 2500 ng/dL <2% patients [2]: Yes
Cmax > 2500 ng/dL none of patients [2]: Yes
Cavg > 300 ng/dL ≥75% patients [3]: No
Cavg > 300 ng/dL ≥80% patients [3]: No
Cmax > 1500 ng/dL <15% patients [3]: Yes
Cmax > 1500 ng/dL <20% patients [3]: Yes
Cmax > 1800 ng/dL <5% patients [3]: Yes
Cmax > 1800 ng/dL <10% patients [3]: Yes
Cmax > 2500 ng/dL <2% patients [3]: Yes
Cmax > 2500 ng/dL none of patients [3]: Yes
Cavg > 300 ng/dL ≥75% patients [4]: Yes
Cavg > 300 ng/dL ≥80% patients [4]: No
Cmax > 1500 ng/dL <15% patients [4]: Yes
Cmax > 1500 ng/dL <20% patients [4]: Yes
Cmax > 1800 ng/dL <5% patients [4]: Yes
Cmax > 1800 ng/dL <10% patients [4]: Yes
Cmax > 2500 ng/dL <2% patients [4]: Yes
Cmax > 2500 ng/dL none of patients [4]: Yes
Cavg > 300 ng/dL ≥75% patients [5]: Yes
Cavg > 300 ng/dL ≥80% patients [5]: Yes
Cmax > 1500 ng/dL <15% patients [5]: Yes
Cmax > 1500 ng/dL <20% patients [5]: Yes
Cmax > 1800 ng/dL <5% patients [5]: Yes
Cmax > 1800 ng/dL <10% patients [5]: Yes
Cmax > 2500 ng/dL <2% patients [5]: Yes
Cmax > 2500 ng/dL none of patients [5]: Yes
Cavg > 300 ng/dL ≥75% patients [6]: Yes
Cavg > 300 ng/dL ≥80% patients [6]: Yes
Cmax > 1500 ng/dL <15% patients [6]: Yes
Cmax > 1500 ng/dL <20% patients [6]: Yes
Cmax > 1800 ng/dL <5% patients [6]: Yes
Cmax > 1800 ng/dL <10% patients [6]: Yes
Cmax > 2500 ng/dL <2% patients [6]: Yes
Cmax > 2500 ng/dL none of patients [6]: Yes
Cavg > 300 ng/dL ≥75% patients [7]: Yes
Cavg > 300 ng/dL ≥80% patients [7]: Yes
Cmax > 1500 ng/dL <15% patients [7]: Yes
Cmax > 1500 ng/dL <20% patients [7]: Yes
Cmax > 1800 ng/dL <5% patients [7]: Yes
Cmax > 1800 ng/dL <10% patients [7]: Yes
Cmax > 2500 ng/dL <2% patients [7]: Yes
Cmax > 2500 ng/dL none of patients [7]: Yes
Cavg > 300 ng/dL ≥75% patients [8]: Yes
Cavg > 300 ng/dL ≥80% patients [8]: Yes
Cmax > 1500 ng/dL <15% patients [8]: Yes
Cmax > 1500 ng/dL <20% patients [8]: Yes
Cmax > 1800 ng/dL <5% patients [8]: Yes
Cmax > 1800 ng/dL <10% patients [8]: Yes
Cmax > 2500 ng/dL <2% patients [8]: Yes
Cmax > 2500 ng/dL none of patients [8]: Yes
Cavg > 300 ng/dL ≥75% patients [9]: Yes
Cavg > 300 ng/dL ≥80% patients [9]: Yes
Cmax > 1500 ng/dL <15% patients [9]: Yes
Cmax > 1500 ng/dL <20% patients [9]: Yes
Cmax > 1800 ng/dL <5% patients [9]: Yes
Cmax > 1800 ng/dL <10% patients [9]: Yes
Cmax > 2500 ng/dL <2% patients [9]: Yes
Cmax > 2500 ng/dL none of patients [9]: Yes
Cavg > 300 ng/dL ≥75% patients [10]: Yes
Cavg > 300 ng/dL ≥80% patients [10]: Yes
Cmax > 1500 ng/dL <15% patients [10]: Yes
Cmax > 1500 ng/dL <20% patients [10]: Yes
Cmax > 1800 ng/dL <5% patients [10]: Yes
Cmax > 1800 ng/dL <10% patients [10]: Yes
Cmax > 2500 ng/dL <2% patients [10]: Yes
Cmax > 2500 ng/dL none of patients [10]: Yes
